In assay [1] the test system is MCF-7 cells. The experiment in a line: CellTiter-Glo (CTG) cell proliferation assay in MCF-7 cells. The note with it: Homo sapiens, MCF7, 144 h, MCF-7 cell proliferation, Day 6. The class given is cell-based. From the text: CellTiter-Glo® (CTG) Assays in MCF-7 and T47D Cell Lines.
In vitro Assay: MCF-7 and T47D CTG assay

Assay [2] concerns the target ER in MCF-7 cells (Homo sapiens (Human), UniProt P03372). The experiment in a line: In-cell Western (ICW) ER degradation assay in MCF-7 cells. The class given is cell-based. Conditions: for DC50: MCF-7, ER degradation, read-out: MCF7 DC50.
Setting [3] is: MCF7, read-out: MCF7 Dmax, MCF-7, maximal ER degradation, 16 hrs treatment.
[4] abbreviates: MCF7, MCF-7, maximal ER degradation, 16 hrs treatment, read-out: MCF7 Dmax.

Here are results for 14 molecules from US20260028354A1, “TETRAHYDRONAPHTHALENE DERIVATIVES AS ESTROGEN RECEPTOR DEGRADERS” (REGENT OF THE UNIVERSITY OF MICHIGAN, priority 2022, published 2026).

Molecules are shown by their SMILES. Like-named read-outs stand apart in the source and are kept apart here.

Sequence of ER in MCF-7 cells (P03372 whole entry): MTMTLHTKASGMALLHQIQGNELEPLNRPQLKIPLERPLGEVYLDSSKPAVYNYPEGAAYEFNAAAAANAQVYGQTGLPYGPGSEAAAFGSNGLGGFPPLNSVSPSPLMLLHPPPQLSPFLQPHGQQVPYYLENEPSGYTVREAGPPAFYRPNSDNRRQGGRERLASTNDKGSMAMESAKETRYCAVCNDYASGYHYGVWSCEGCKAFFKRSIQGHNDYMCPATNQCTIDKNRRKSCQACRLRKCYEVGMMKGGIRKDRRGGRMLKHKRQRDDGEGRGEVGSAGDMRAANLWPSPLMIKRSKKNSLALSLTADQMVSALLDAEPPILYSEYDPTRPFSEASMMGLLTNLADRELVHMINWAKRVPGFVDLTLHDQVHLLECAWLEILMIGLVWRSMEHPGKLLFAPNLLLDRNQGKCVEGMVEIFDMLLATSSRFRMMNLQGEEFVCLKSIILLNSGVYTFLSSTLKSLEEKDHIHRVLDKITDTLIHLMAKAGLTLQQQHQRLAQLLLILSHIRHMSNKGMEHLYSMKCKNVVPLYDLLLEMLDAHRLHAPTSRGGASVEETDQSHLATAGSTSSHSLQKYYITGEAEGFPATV

In assay [1], `COc1cc(N2CCC3(CC2)CC(CN2CCC4(CC2)COc2c4cc(C)c4c2CN([C@H]2CCC(=O)NC2=O)C4=O)C3)c(F)cc1[C@@H]1c2ccc(O)cc2CC[C@@H]1c1ccccc1` [Compound A203, (S)-3-(1′-((7-(2-fluoro-4-((1S,2S)-6-hydroxy-2-phenyl-1,2,3,4-tetrahydronaphthalen-1-yl)-5-methoxyphenyl)-7-azaspiro[3.5]nonan-2-yl)methyl)-5-methyl-6-oxo-6,8-dihydro-2H,7H-spiro[furo[2,3-e]isoindole-3,4′-piperidin]-7-yl)piperidine-2,6-dione] had an IC50 of under 10 nM. Moreover, the Dmax in assay [2] (setting [3]) was over 75%. Moreover, in assay [2] (16 hrs treatment), the DC50 was under 1 nM.
`COc1cc(N2CCC(CCN3CCN4c5cc6c(cc5OC[C@@H]4C3)C(=O)N([C@H]3CCC(=O)NC3=O)C6)CC2)c(F)cc1[C@@H]1c2ccc(O)cc2CC[C@@H]1c1ccccc1` [Compound A188, (S)-3-((S)-3-(2-(1-(2-fluoro-4-((1S,2S)-6-hydroxy-2-phenyl-1,2,3,4-tetrahydronaphthalen-1-yl)-5-methoxyphenyl)piper-idin-4-yl)ethyl)-8-oxo-1,2,3,4,4a,5,8,10-octahydro-9H-pyr-azino[1′,2′:4,5][1,4]oxazino [2,3-f]isoindol-9-yl)piperidine-2,6-dione] registered an IC50 in assay [1] of 10 to 100 nM. In addition, the Dmax in assay [2] (setting [4]) was over 75%. In addition, the DC50 in assay [2] (16 hrs treatment) was under 1 nM.
In the case of `COc1cc(N2CCC3(CC2)CC(CN2CCC4(CC2)COc2c4cc(Cl)c4c2CN([C@H]2CCC(=O)NC2=O)C4=O)C3)c(F)cc1[C@@H]1c2ccc(O)cc2CC[C@@H]1c1ccccc1` [Compound A200, (S)-3-(5-chloro-1′-((7-(2-fluoro-4-((1S,2S)-6-hydroxy-2-phenyl-1,2,3,4-tetrahydro-naphthalen-1-yl)-5-methoxy-phenyl)-7-azaspiro[3.5]nonan-2-yl)methyl)-6-oxo-6,8-dihydro-2H,7H-spiro[furo[2,3-e]isoindole-3,4′-piperidin]-7-yl)piperidine-2,6-dione], in assay [1], the IC50 is under 10 nM. In addition, in assay [2] (setting [3]), the Dmax is over 75%. Besides, the DC50 in assay [2] (16 hrs treatment) was under 1 nM.
The corresponding values for `COc1cc(N2CCC(CCN3CCC4(CC3)COc3cc5c(cc34)CN([C@H]3CCC(=O)NC3=O)C5=O)CC2)c(F)cc1[C@@H]1c2ccc(O)cc2CC[C@@H]1c1ccccc1` [Compound A189, (S)-3-(1′-(2-(1-(2-fluoro-4-((1S,2S)-6-hydroxy-2-phenyl-1,2,3,4-tetrahydronaphthalen-1-yl)-5-methoxyphenyl)piper-idin-4-yl)ethyl)-7-oxo-5,7-dihydro-2H,6H-spiro[furo[2,3-f]isoindole-3,4′-piperidin]-6-yl)piperidine-2,6-dione] are 10 to 100 nM, over 75% and under 1 nM.
For `COc1cc(N2CCC3(CC[C@H](CN4CCC5(CC4)COc4c5cc(C)c5c4CN([C@H]4CCC(=O)NC4=O)C5=O)CO3)CC2)c(F)cc1[C@@H]1c2ccc(O)cc2CC[C@@H]1c1ccccc1` [Compound A230, (S)-3-(1′-(((R)-9-(2-fluoro-4-((1S,2S)-6-hydroxy-2-phenyl-1,2,3,4-tetrahydronaphthalen-1-yl)-5-methoxyphenyl)-1-oxa-9-azaspiro[5.5]undecan-3-yl)methyl)-5-methyl-6-oxo-6,8-dihydro-2H,7H-spiro[furo[2,3-e]isoindole-3,4′-piperidin]-7-yl)piperidine-2,6-dione] the same measures were under 10 nM, over 75% and under 1 nM.
`COc1cc(N2CC(CCN3CCN4c5ccc6c(c5OC[C@H]4C3)CN([C@H]3CCC(=O)NC3=O)C6=O)C2)c(F)cc1[C@@H]1c2ccc(O)cc2CC[C@@H]1c1ccccc1` [Compound A204, (S)-3-((R)-7-(2-(1-(2-fluoro-4-((1S,2S)-6-hydroxy-2-phenyl-1,2,3,4-tetrahydronaphthalen-1-yl)-5-methoxyphenyl)azet-idin-3-yl)ethyl)-1-oxo-1,3,5,5a, 6,7,8,9-octahydro-2H-pyrazino [1′,2′:4,5][1,4]oxazino[2,3-e]isoindol-2-yl)piperidine-2,6-dione] showed a half-inhibitory concentration (IC50) in assay [1] of over 100 nM. In assay [2] (setting [4]), the Dmax fell in the range of 50 to 75%. Also, in assay [2] (16 hrs treatment), the DC50 lay within 1 to 10 nM.
In turn, `COc1cc2c(c3c1C(=O)N([C@H]1CCC(=O)NC1=O)C3)OCC21CCN(C[C@@H]2CCC3(CCN(c4ccc([C@@H]5c6ccc(O)cc6CC[C@@H]5c5ccccc5)cc4)CC3)OC2)CC1` [Compound A236, (S)-3-(1′-(((S)-9-(4-((1R,2S)-6-hydroxy-2-phenyl-1,2,3,4-tetrahydronaphthalen-1-yl)phenyl)-1-oxa-9-azaspiro[5.5]undecan-3-yl)methyl)-5-methoxy-6-oxo-6,8-dihydro-2H,7H-spiro[furo[2,3-e]isoindole-3,4′-piperidin]-7-yl)piperidine-2,6-dione] returned an IC50 in assay [1] of 10 to 100 nM. Moreover, in assay [2] (setting [3]), the Dmax was over 75%. For the same molecule, in assay [2] (16 hrs treatment), the DC50 is under 1 nM.
In the case of `COc1c([C@@H]2c3ccc(O)cc3CC[C@@H]2c2ccccc2)ccc(N2CCC3(CC2)CC(CN2CCN4c5cc6c(cc5OC[C@@H]4C2)C(=O)N([C@H]2CCC(=O)NC2=O)C6)C3)c1F` [Compound A197, (S)-3-((S)-3-((7-(2-fluoro-4-((1S,2S)-6-hydroxy-2-phenyl-1,2,3,4-tetrahydronaphthalen-1-yl)-3-methoxyphenyl)-7-aza-spiro[3.5]nonan-2-yl)methyl)-8-oxo-1,2,3,4,4a,5,8,10-octa-hydro-9H-pyrazino[1′,2′:4,5] [1,4]oxazino[2,3-f]isoindol-9-yl)piperidine-2,6-dione], the IC50 in assay [1] was in the range of 10 to 100 nM. The Dmax in assay [2] (setting [4]) was over 75%. Moreover, the DC50 in assay [2] (16 hrs treatment) was under 1 nM.
Turning to `COc1cc(N2CCC3(CC[C@H](CN4CCC5(CC4)COc4c5cc(Cl)c5c4CN([C@H]4CCC(=O)NC4=O)C5=O)CO3)CC2)c(F)cc1[C@@H]1c2ccc(O)cc2CC[C@@H]1c1ccccc1` [Compound A232, (S)-3-(5-chloro-1′-(((R)-9-(2-fluoro-4-((1S,2S)-6-hydroxy-2-phenyl-1,2,3,4-tetrahydronaphthalen-1-yl)-5-methoxyphenyl)-1-oxa-9-azaspiro[5.5]undecan-3-yl)methyl)-6-oxo-6,8-dihydro-2H,7H-spiro[furo[2,3-e]isoindole-3,4′-piperidin]-7-yl)piperidine-2,6-dione], the IC50 in assay [1] was under 10 nM. Moreover, the maximal degradation (Dmax) in assay [2] (setting [3]) was over 75%. For the same molecule, in assay [2] (16 hrs treatment), the half-maximal degradation concentration (DC50) is under 1 nM.
The corresponding values for `COC1(CCN2CCC3(CC2)COc2c3ccc3c2CN([C@H]2CCC(=O)NC2=O)C3=O)CCN(c2ccc([C@@H]3c4ccc(O)cc4CC[C@@H]3c3ccccc3)cc2)CC1` [Compound A193, (S)-3-(1′-(2-(1-(4-((1R,2S)-6-hydroxy-2-phenyl-1,2,3,4-tetra-hydronaphthalen-1-yl)phenyl)-4-methoxypiperidin-4-yl)-ethyl)-6-oxo-6,8-dihydro-2H, 7H-spiro[furo[2,3-e]isoindole-3,4′-piperidin]-7-yl)piperidine-2,6-dione] are 10 to 100 nM, over 75% and under 1 nM.
The molecule `Cc1cc2c(c3c1C(=O)N([C@H]1CCC(=O)NC1=O)C3)OCC21CCN(C[C@H]2CCC3(CCN(c4ccc([C@@H]5c6ccc(O)cc6CC[C@@H]5c5ccccc5)cc4)CC3)OC2)CC1` [Compound A210, (S)-3-(1′-(((R)-9-(4-((1R,2S)-6-hydroxy-2-phenyl-1,2,3,4-tetrahydronaphthalen-1-yl)phenyl)-1-oxa-9-azaspiro[5.5]undecan-3-yl)methyl)-5-methyl-6-oxo-6,8-dihydro-2H,7H-spiro[furo[2,3-e]isoindole-3,4′-piperidin]-7-yl)piperidine-2,6-dione] had an IC50 in assay [1] of under 10 nM. In addition, the Dmax in assay [2] (setting [3]) is over 75%. Also, the DC50 in assay [2] (16 hrs treatment) is under 1 nM.
The corresponding values for `COc1cc(N2CCC(CCN3CCC4(CC3)COc3c4ccc4c3CN([C@H]3CCC(=O)NC3=O)C4=O)CC2)c(F)cc1[C@@H]1c2ccc(O)cc2CC[C@@H]1c1ccccc1` [Compound A187, (S)-3-(1′-(2-(1-(2-fluoro-4-((1S,2S)-6-hydroxy-2-phenyl-1,2,3,4-tetrahydronaphthalen-1-yl)-5-methoxyphenyl)piperidin-4-yl)ethyl)-6-oxo-6,8-dihydro-2H,7H-spiro[furo[2,3-e]iso-indole-3,4′-piperidin]-7-yl)-piperidine-2,6-dione] are 10 to 100 nM, over 75% and under 1 nM.
The molecule `COc1cc(N2CCC(CCN3CCN4c5ccc6c(c5OC[C@H]4C3)CN([C@H]3CCC(=O)NC3=O)C6=O)CC2)c(F)cc1[C@@H]1c2ccc(O)cc2CC[C@@H]1c1ccccc1` [Compound A180, (S)-3-((R)-7-(2-(1-(2-fluoro-4-((1S,2S)-6-hydroxy-2-phenyl-1,2,3,4-tetrahydronaphthalen-1-yl)-5-methoxyphenyl)piper-idin-4-yl)ethyl)-1-oxo-1,3,5,5a, 6,7,8,9-octahydro-2H-pyrazino [1′,2′:4,5][1,4]oxazino[2,3-e]isoindol-2-yl)piperidine-2,6-dione] showed an IC50 in assay [1] of over 100 nM. Also, the Dmax in assay [2] (setting [4]) is over 75%. Also, in assay [2] (16 hrs treatment), the DC50 was under 1 nM.
In the case of `COc1cc(N2CCC(CCN3CCC4(CC3)COc3c4cc(OC)c4c3CN([C@H]3CCC(=O)NC3=O)C4=O)CC2)c(F)cc1[C@@H]1c2ccc(O)cc2CC[C@@H]1c1ccccc1` [Compound A226, (S)-3-(1′-(2-(1-(2-fluoro-4-((1S,2S)-6-hydroxy-2-phenyl-1,2,3,4-tetrahydronaphthalen-1-yl)-5-methoxyphenyl)piperidin-4-yl)ethyl)-5-methoxy-6-oxo-6,8-dihydro-2H,7H-spiro[furo[2,3-e]isoindole-3,4′-piperidin]-7-yl)piperidine-2,6-dione], the IC50 in assay [1] was under 10 nM. Further, the Dmax in assay [2] (setting [3]) is over 75%. For the same molecule, the DC50 in assay [2] (16 hrs treatment) is under 1 nM.
